One test has as its system HT-29 cells. Briefly: Cytokinetic studies (cell cycle distribution by flow cytometry), HT-29. It is filed as cell-based, human.
The test system of test [1] is disseminated colorectal cancer. The settings on record: cited from earlier work.
For a further test, the system named is SW480 cells. Put plainly: Cytokinetic studies (cell cycle distribution by flow cytometry), SW480. It is filed as cell-based, human. A general note: In flow cytometry, cells or beads pass a laser one at a time.
The mark [2] stands for this setting: 5-fluorouracil 50-500 uM, 24 hour incubation.

The values that follow come from patent US5444064A, “Method of treating gastrointestinal malignancies” (Montefiore Medical Center, priority 1989, dated 1995).

For the compound `O=c1[nH]cc(F)c(=O)[nH]1` [5-fluorouracil], the “depletion of G2M” value in the test with HT-29 cells (setting [2]) and in the test with SW480 cells (setting [2]) was “nearly complete depletion of G2M” each time. Besides, the “time to depletion of G2M compartment” value with HT-29 cells (time course, from start of incubation) is at most 7 h. In addition, the “completeness and duration of response” value in test [1] (human, in vivo) is “rarely respond completely and the duration of the response is generally short”. In addition, the remissions in test [1] (patients with disseminated colorectal cancer) is reported as 15-35%. The median survival result in test [1] (versus untreated controls) is “no better than that of untreated controls”. In addition, in the test with SW480 cells (5-fluorouracil and alpha-2a-interferon alone or in combination, data not shown), the “effect on cell cycle versus HT-29” value is recorded as “qualitatively identical effects”. Also, the “prolongation of the block in G0/G1” value with SW480 cells (data not shown) stood at 24 h.
